Test results taken from patent publication US8119645B2, “Fungicide hydroximoyl-tetrazole derivatives” (Bayer Cropscience AG, priority 2006, dated 2012).

Assay: logP by reversed-phase HPLC (EEC Directive 79/831 Annex V.A8)
Type: physicochemical
Conditions: not given
`Cc1nnnn1/C(=N/OCc1csc(NC(=O)C(C)(C)C)n1)c1ccsc1` [Compound 18, O-(2-tert-Butylcarbonylamino-1,3-thiazol-4-yl)methyl-(thien-3-yl)-(5-methyltetrazol-1-yl)methanone oxime] showed a chromatographic logP of 2.94.

Same assay, conditions: HPLC C18, 40° C., 0.1% aqueous formic acid / acetonitrile gradient
With `Cc1ccc(C(=NOCc2cccc(N)n2)n2nnnc2C)o1` [Compound 72] the LogP was 1.
`Cc1nnnn1C(=NOCCc1csc(N)n1)c1ccsc1` [Compound 50] showed a LogP of 1.16.
In the case of `Cc1ccc(C(=NOCc2csc(NC(=O)OCCc3ccccc3)n2)n2nnnc2C)s1` [Compound 123], the LogP is reported as 3.88.
With `CCc1nnnn1C(=NOCc1csc(NC(=O)C(C)C)n1)c1ccsc1` [Compound 43] the LogP was 3.04.
`Cc1nnnn1C(=NOCc1csc(NC(=O)C(C)C)n1)c1ccc(Br)s1` [Compound 94] showed a LogP of 3.22.
`Cn1nnnc1C(=NOCc1csc(NC(=O)OCCc2ccccc2)n1)c1csc(-c2ccccc2)n1` [Compound 166] gave a LogP of 4.06.
Work on `CCCCCC(=O)Nc1nc(CON=C(c2ccsc2Cl)n2nnnc2C)cs1` [Compound 13] yielded a LogP of 3.59.
